The DC50 is the concentration giving 50% degradation. A word on the Dmax: it is the largest share of the target that was removed.

The assay concerns the target T1, BRM (Homo sapiens, UniProt P51531).
T1 construct: In-Cell Western Screen of BRM Degradation in SW1573 Cells; endogenous in cells; host or cells: SW1573
The assay is described as follows: In-cell Western screen of BRM degradation in SW1573 cells (Dmax and DC50). The assay is classed as cell-based. Put shortly:
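SW1573 cells were treated overnight (18-20 hours) with compound at 0.1% final DMSO. They were then PFA-fixed, permeabilised with Triton X-100 and immunostained with 800 nm/680 nm secondary antibodies. BRM signal was quantified by LI-COR in-cell Western imaging to derive Dmax and DC50.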

Where [1] appears, read: BRM degradation, SW1573 cells, read-out: DC50.
Where [2] appears, read: BRM degradation, SW1573 cells, tested at the top concentration of between 0.3 and 10 μM, read-out: Dmax (%) (% degraded).
Where [3] appears, read: SW1573, % degraded, when tested at the top concentration of between 0.3 and 10 μM, read-out: BRM Dmax (%).
Where [4] appears, read: target protein degradation, read-out: BRM DC50.
[5] abbreviates: BRM degradation, SW1573 cells, when tested at the top concentration of between 0.3 and 10 μM, read-out: Dmax (%) (% degraded).
Setting [6] is: BRM degradation, read-out: BRM DC50.

Like-named read-outs stand apart in the source and are kept apart here. Some results are limits rather than exact numbers.

T1 sequence (P51531 whole entry): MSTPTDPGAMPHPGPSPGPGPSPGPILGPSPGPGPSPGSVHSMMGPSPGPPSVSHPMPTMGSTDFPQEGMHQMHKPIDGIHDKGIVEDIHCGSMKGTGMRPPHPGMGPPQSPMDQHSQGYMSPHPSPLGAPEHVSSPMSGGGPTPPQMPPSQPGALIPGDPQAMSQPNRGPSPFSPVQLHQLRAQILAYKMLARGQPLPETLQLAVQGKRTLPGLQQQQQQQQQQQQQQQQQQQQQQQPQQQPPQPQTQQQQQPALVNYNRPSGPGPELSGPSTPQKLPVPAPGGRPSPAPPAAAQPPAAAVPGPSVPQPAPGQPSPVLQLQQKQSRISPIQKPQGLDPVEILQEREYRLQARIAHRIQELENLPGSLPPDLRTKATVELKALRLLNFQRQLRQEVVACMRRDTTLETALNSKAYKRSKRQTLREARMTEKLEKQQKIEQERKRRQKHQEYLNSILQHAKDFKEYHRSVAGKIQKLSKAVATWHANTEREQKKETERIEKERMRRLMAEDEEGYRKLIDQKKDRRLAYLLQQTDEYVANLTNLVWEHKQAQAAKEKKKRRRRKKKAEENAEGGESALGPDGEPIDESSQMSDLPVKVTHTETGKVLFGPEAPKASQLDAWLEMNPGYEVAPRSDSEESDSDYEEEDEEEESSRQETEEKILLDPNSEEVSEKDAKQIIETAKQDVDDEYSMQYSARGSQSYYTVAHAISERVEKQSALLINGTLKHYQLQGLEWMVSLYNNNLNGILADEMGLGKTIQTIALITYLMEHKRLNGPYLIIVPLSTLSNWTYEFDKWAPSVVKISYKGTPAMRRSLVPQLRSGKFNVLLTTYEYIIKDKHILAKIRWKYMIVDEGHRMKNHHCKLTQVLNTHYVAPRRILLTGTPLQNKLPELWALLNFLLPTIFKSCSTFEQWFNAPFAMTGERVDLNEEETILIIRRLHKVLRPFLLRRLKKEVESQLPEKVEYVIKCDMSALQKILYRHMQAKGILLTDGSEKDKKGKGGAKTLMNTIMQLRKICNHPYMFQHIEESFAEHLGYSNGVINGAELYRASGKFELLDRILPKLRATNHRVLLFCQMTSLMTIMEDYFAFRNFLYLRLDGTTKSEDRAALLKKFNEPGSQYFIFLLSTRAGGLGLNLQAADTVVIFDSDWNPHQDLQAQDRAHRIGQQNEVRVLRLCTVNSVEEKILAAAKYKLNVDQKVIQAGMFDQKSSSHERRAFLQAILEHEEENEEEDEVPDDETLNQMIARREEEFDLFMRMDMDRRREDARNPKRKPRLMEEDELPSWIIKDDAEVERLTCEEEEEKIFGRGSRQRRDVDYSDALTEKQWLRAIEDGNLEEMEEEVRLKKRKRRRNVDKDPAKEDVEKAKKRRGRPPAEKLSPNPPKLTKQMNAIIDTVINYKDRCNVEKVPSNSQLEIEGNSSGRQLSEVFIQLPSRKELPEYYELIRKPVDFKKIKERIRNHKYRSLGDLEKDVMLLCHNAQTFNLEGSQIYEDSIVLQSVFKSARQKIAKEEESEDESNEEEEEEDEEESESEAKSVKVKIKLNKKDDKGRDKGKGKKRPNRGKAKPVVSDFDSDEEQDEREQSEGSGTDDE

On to `CC(C)[C@@H](C(=O)N1C[C@H](O)C[C@H]1C(=O)N[C@@H](C)c1ccc(-c2c(Cl)cnn2C)cc1)c1cc(OCCN2CCN(CCOc3cc(N4C5CCC4CN(c4cc(-c6ccccc6O)nnc4N)C5)ccn3)CC2)no1` [compound 283, (2S,4R)-1-((2R)-2-(3-(2-(4-(2-((4-(3-(3-amino-6-(2-hydroxyphenyl)pyridazin-4-yl)-3,8-diazabicyclo[3.2.1]octan-8-yl)pyridin-2-yl)oxy)ethyl)piperazin-1-yl)ethoxy)isoxazol-5-yl)-3-methylbutanoyl)-N-((S)-1-(4-(4-chloro-1-methyl-1H-pyrazol-5-yl)phenyl)ethyl)-4-hydroxypyrrolidine-2-carboxamide], for which the DC50 under setting [1] was under 2.5 nM. Moreover, the Dmax under setting [2] was over 75%.
In the case of `Cc1ncsc1-c1ccc([C@H](C)NC(=O)[C@@H]2C[C@@H](O)CN2C(=O)[C@H](c2cc(OCCN3CCC(O[C@H]4C[C@H](Oc5cc(N6C7CCC6CN(c6cc(-c8ccccc8O)nnc6N)C7)ccn5)C4)CC3)no2)C(C)C)nc1` [compound 367, (2S,4R)-1-((2S)-2-(3-(2-(4-((1r,3S)-3-((4-(3-(3-amino-6-(2-hydroxyphenyl)pyridazin-4-yl)-3,8-diazabicyclo[3.2.1]octan-8-yl)pyridin-2-yl)oxy)cyclobutoxy)piperidin-1-yl)ethoxy)isoxazol-5-yl)-3-methylbutanoyl)-4-hydroxy-N-((S)-1-(5-(4-methylthiazol-5-yl)pyridin-2-yl)ethyl)pyrrolidine-2-carboxamide], the Dmax under setting [3] is over 75%. Moreover, the DC50 under setting [4] was over 30 nM.
In the case of `Cc1ncsc1-c1ccc(CNC(=O)[C@@H]2C[C@@H](O)CN2C(=O)[C@H](c2cc(OCCOCCOCCOCCOc3cc(N4C5CCC4CN(c4cc(-c6ccccc6O)nnc4N)C5)ccn3)no2)C(C)C)cc1` [compound 29, (2S,4R)-1-[(2S)-2-(3-[[1-(4-[3-[3-amino-6-(2-hydroxyphenyl)pyridazin-4-yl]-3,8-diazabicyclo[3.2.1]octan-8-yl]pyridin-2-yl)-1,4,7,10-tetraoxadodecan-12-yl]oxy]-1,2-oxazol-5-yl)-3-methylbutanoyl]-4-hydroxy-N-[[4-(4-methyl-1,3-thiazol-5-yl)phenyl]methyl]pyrrolidine-2-carboxamide], the 50% degradation concentration (DC50) under setting [1] fell in the range of 10 to 30 nM. Also, the Dmax under setting [5] is over 75%.
Take `Cc1ncsc1-c1ccc([C@H](CCC#N)NC(=O)[C@@H]2C[C@@H](O)CN2C(=O)[C@@H](c2cc(N3CCC(CN4CCC(O[C@H]5C[C@H](Oc6cc(N7C8CCC7CN(c7cc(-c9ccccc9O)nnc7N)C8)ccn6)C5)CC4)CC3)no2)C(C)C)cc1` [compound 672, (2S,4R)-1-((2R)-2-(3-(4-((4-((1r,3r)-3-((4-(3-(3-amino-6-(2-hydroxyphenyl)pyridazin-4-yl)-3,8-diazabicyclo[3.2.1]octan-8-yl)pyridin-2-yl)oxy)cyclobutoxy)piperidin-1-yl)methyl)piperidin-1-yl)isoxazol-5-yl)-3-methylbutanoyl)-N-((S)-3-cyano-1-(4-(4-methylthiazol-5-yl)phenyl)propyl)-4-hydroxypyrrolidine-2-carboxamide]: under setting [1], the DC50 was under 2.5 nM. The Dmax (BRM degradation, SW1573 cells, read-out: Dmax (% degraded)) was over 75%.
Regarding `Cc1ncsc1-c1ccc([C@H](C)NC(=O)[C@@H]2C[C@@H](O)CN2C(=O)[C@H](c2cc(OCCC3CCN(C(=O)[C@H]4C[C@H](CN5CCC([C@H](C)n6cc(-c7cc(-c8ccccc8O)nnc7N)cn6)CC5)C4)CC3)no2)C(C)C)cc1` [compound 453, (2S,4R)-1-((S)-2-(3-(2-(1-((1S,3S)-3-((4-((S)-1-(4-(3-amino-6-(2-hydroxyphenyl)pyridazin-4-yl)-1H-pyrazol-1-yl)ethyl)piperidin-1-yl)methyl)cyclobutane-1-carbonyl)piperidin-4-yl)ethoxy)isoxazol-5-yl)-3-methylbutanoyl)-4-hydroxy-N-((S)-1-(4-(4-methylthiazol-5-yl)phenyl)ethyl)pyrrolidine-2-carboxamide], the Dmax under setting [3] was over 75%. Also, the DC50 under setting [4] was under 2.5 nM.
Consider `Cc1ncsc1-c1ccc([C@H](C)NC(=O)[C@@H]2C[C@@H](O)CN2C(=O)[C@H](c2cc(OCC[C@H]3CCN(C[C@H]4C[C@H](Oc5cc(N6C7CCC6CN(c6cc(-c8ccccc8O)nnc6N)C7)ccn5)C4)C[C@@H]3C)no2)C(C)C)cc1` (racemic) [compound 578, (2S,4R)-1-((2S)-2-(3-(2-((3R,4R)-1-(((1r,3R)-3-((4-(3-(3-amino-6-(2-hydroxyphenyl)pyridazin-4-yl)-3,8-diazabicyclo[3.2.1]octan-8-yl)pyridin-2-yl)oxy)cyclobutyl)methyl)-3-methylpiperidin-4-yl)ethoxy)isoxazol-5-yl)-3-methylbutanoyl)-4-hydroxy-N-((S)-1-(4-(4-methylthiazol-5-yl)phenyl)ethyl)pyrrolidine-2-carboxamide], for which the Dmax (BRM degradation, SW1573 cells, Table 2D, read-out: **Dmax (%) (% degraded)) is over 75%. The DC50 (BRM degradation, SW1573 cells, Table 2D, read-out: *DC50) is under 2.5 nM.
With `Cc1cc([C@H](C(=O)N2C[C@H](O)C[C@H]2C(=O)N[C@@H](C)c2ccc(-c3scnc3C)cc2)[C@H](C)COCCOc2cc(N3C4CCC3CN(c3cc(-c5ccccc5O)nnc3N)C4)ccn2)on1` [compound 514, (2S,4R)-1-((2R,3S)-4-(2-((4-(3-(3-amino-6-(2-hydroxyphenyl)pyridazin-4-yl)-3,8-diazabicyclo[3.2.1]octan-8-yl)pyridin-2-yl)oxy)ethoxy)-3-methyl-2-(3-methylisoxazol-5-yl)butanoyl)-4-hydroxy-N-((S)-1-(4-(4-methylthiazol-5-yl)phenyl)ethyl)pyrrolidine-2-carboxamide], the DC50 under setting [6] was over 30 nM.
For `Cc1ncsc1-c1ccc([C@H](C)NC(=O)[C@@H]2C[C@@H](O)CN2C(=O)[C@H](c2cc(OCCN3CCC(O[C@H]4C[C@H](Oc5cc(N6C7CCC6CN(c6cc(-c8ccccc8O)nnc6N)C7)ccn5)C4)CC3)no2)C(C)C)cn1` [compound 179, (2S,4R)-1-((2S)-2-(3-(2-(4-((1r,3S)-3-((4-(3-(3-amino-6-(2-hydroxyphenyl)pyridazin-4-yl)-3,8-diazabicyclo[3.2.1]octan-8-yl)pyridin-2-yl)oxy)cyclobutoxy)piperidin-1-yl)ethoxy)isoxazol-5-yl)-3-methylbutanoyl)-4-hydroxy-N-((S)-1-(6-(4-methylthiazol-5-yl)pyridin-3-yl)ethyl)pyrrolidine-2-carboxamide], the DC50 under setting [1] was over 30 nM.
`Cc1ncsc1-c1ccc([C@H](C)NC(=O)[C@@H]2C[C@@H](O)CN2C(=O)[C@H](c2cc(OCCOc3ccc(C(C)n4cc(-c5cc(-c6ccccc6O)nnc5N)cn4)cc3)no2)C(C)C)cc1` (stereo partly drawn) [compound 156, (2S,4R)-1-((2S)-2-(3-(2-(4-(1-(4-(3-amino-6-(2-hydroxyphenyl)pyridazin-4-yl)-1H-pyrazol-1-yl)ethyl)phenoxy)ethoxy)isoxazol-5-yl)-3-methylbutanoyl)-4-hydroxy-N-((S)-1-(4-(4-methylthiazol-5-yl)phenyl)ethyl)pyrrolidine-2-carboxamide]: under setting [1], the DC50 is over 30 nM. Further, under setting [2], the maximal degradation (Dmax) is over 75%.
Consider `Cc1cc([C@@H](C(=O)N2C[C@H](O)C[C@H]2C(=O)N[C@H](COCCOCCNc2ccc(-c3ccccc3O)nn2)c2ccc(-c3scnc3C)cc2)C(C)C)on1` [compound 523, (2S,4R)-4-hydroxy-N-((S)-2-(2-(2-((6-(2-hydroxyphenyl)pyridazin-3-yl)amino)ethoxy)ethoxy)-1-(4-(4-methylthiazol-5-yl)phenyl)ethyl)-1-((S)-3-methyl-2-(3-methylisoxazol-5-yl)butanoyl)pyrrolidine-2-carboxamide], for which the DC50 under setting [6] was over 30 nM.
Turning to `Cc1ncsc1-c1ccc([C@@H](NC(=O)[C@@H]2C[C@@H](O)CN2C(=O)[C@@H](c2cc(OCCN3CCN(CCOc4cc(N5C6CCC5CN(c5cc(-c7ccccc7O)nnc5N)C6)ccn4)CC3)no2)C(C)C)C(=O)N(C)C)cc1` [compound 131, (2S,4R)-1-((2R)-2-(3-(2-(4-(2-((4-(3-(3-amino-6-(2-hydroxyphenyl)pyridazin-4-yl)-3,8-diazabicyclo[3.2.1]octan-8-yl)pyridin-2-yl)oxy)ethyl)piperazin-1-yl)ethoxy)isoxazol-5-yl)-3-methylbutanoyl)-N-((R)-2-(dimethylamino)-1-(4-(4-methylthiazol-5-yl)phenyl)-2-oxoethyl)-4-hydroxypyrrolidine-2-carboxamide], the DC50 under setting [1] is under 2.5 nM. The Dmax under setting [5] is over 75%.
For `Cc1ncoc1-c1ccc([C@H](C)NC(=O)[C@@H]2C[C@@H](O)CN2C(=O)[C@H](c2cc(OCCN3CCN(CCOc4cc(N5C6CCC5CN(c5cc(-c7ccccc7O)nnc5N)C6)ccn4)CC3)no2)C(C)C)cc1` [compound 299, (2S,4R)-1-((2S)-2-(3-(2-(4-(2-((4-(3-(3-amino-6-(2-hydroxyphenyl)pyridazin-4-yl)-3,8-diazabicyclo[3.2.1]octan-8-yl)pyridin-2-yl)oxy)ethyl)piperazin-1-yl)ethoxy)isoxazol-5-yl)-3-methylbutanoyl)-4-hydroxy-N-((S)-1-(4-(4-methyloxazol-5-yl)phenyl)ethyl)pyrrolidine-2-carboxamide], the DC50 under setting [1] was over 30 nM.
